Results published in patent EP1286591B1, “TREATING SMOOTH MUSCLE HYP[…] (R)-OXYBUTYNIN AND (R)- DESETHYLOXYBUTYNIN” (Watson Pharmaceuticals, Inc., priority 2000, dated 2001).

How the values were obtained:
[1] = Therapeutic effects compared with the racemates and optical antipodes; conditions: compared to their corresponding racemates and their optical antipodes
[2] = Tolerability in laboratory animals (acute toxicity in mice); assay type: in vivo; conditions: compared with the S(+)-isomer
Protocol: The experiments are carried out on conscious albino mice that are administered escalating doses of the test compounds intravenously or orally.

[3] = Cardiovascular depressing activity (cardiac side effect studies); assay type: in vivo, guinea pigs; conditions: unwanted side effect of racemic oxybutynin
Protocol: Male guinea pigs (450-600 g) are anesthetized with freshly prepared dialurethane sodium. The jugular vein is catheterized for iv administration of test drugs and the trachea is exposed and cannulated. Subdermal electrodes are positioned for Lead II electrocardiogram recording, monitored on a Grass Polygraph recorder, set at a paper speed of 50 mm/sec. The animals are allowed to stabilize for 30 minute after completion of surgery, and three baseline EKG recordings are then made at 10-minute intervals. The animals are then given a dose of the test compound or vehicle as an intravenous infusion over 30 min. EKG recordings are used to determine QT intervals and heart rates. To compensate for variations in heart rates, QTc intervals are calculated from QT- and RR-intervals as known to those skilled in the art. Prolongation of QTc is indicative of a prolonged action potential, caused by an inhibition of the delayed rectifier potassium channel. Prolongation of QTc is the known cause of Torsades de Pointes ventricular fibrillation by drugs such as terodiline, terfenadine and astemizole (now withdrawn from the market).

Compound | therapeutic effects [1] | tolerated when given to laboratory animals [2] | cardiovascular depressing activity [3]
CCNCC#CCOC(=O)[C@](O)(c1ccccc1)C1CCCCC1 [R(-)-isomer of desethyloxybutynin, R(-)-4-ethylamino-2-butynyl cyclohexylphenyl-glycolate] | superior therapeutic effects | – | –
CCN(CC)CC#CCOC(=O)[C@](O)(c1ccccc1)C1CCCCC1 [R(-)-isomer of oxybutynin, R(-)-4-diethylamino-2-butynyl_-cyclohexyl-_-hydroxy-benzeneacetate] | superior therapeutic effects | much better tolerated than the S(+)-isomer | –
CCNCC#CCOC(=O)[C@@](O)(c1ccccc1)C1CCCCC1 [S(+)-isomer of desethyloxybutynin] | – | – | serious cardiovascular depressing activity
CCN(CC)CC#CCOC(=O)[C@@](O)(c1ccccc1)C1CCCCC1 [S(+)-isomer of oxybutynin] | – | – | serious cardiovascular depressing activity
